The values that follow come from ChEMBL document CHEMBL1155893 (J Med Chem, 2008).

Common to all, as to format: functional, organism-based
The subject of experiment [1] is Plasmodium falciparum. Description: Antimalarial activity against multidrug-resistant Plasmodium falciparum TM91C235.
The test system of experiment [2] is Plasmodium falciparum. Description: Antimalarial activity against chloroquine,mefloquine-sensitive Plasmodium falciparum D6.
For experiment [3], the system named is Plasmodium falciparum. The experiment in a line: Antimalarial activity against chloroquine-resistant Plasmodium falciparum W2.

By pIC50 is commonly meant −log10 of the IC50, conventionally taken in molar units. Lower therefore signals a high IC50. The IC90 is the concentration needed for an effect of 90%. A low value points to an effect from little substance.

pIC50: −log10 of the molar value.

With `CC(=O)O[C@@H]1CC[C@@]2(C)[C@@H](C1)C[C@@H](OC(C)=O)[C@@H]1[C@@H]2C[C@H](OC(C)=O)[C@]2(C)[C@@H]([C@H](C)CCC(=O)NCCNc3ccnc4cc(Cl)ccc34)CC[C@@H]12`, the figures for the pIC50 with Plasmodium falciparum [1], in the experiment on Plasmodium falciparum [2] and in the experiment on Plasmodium falciparum [3] were 7.54, 7.72 and 7.31, respectively. For the same molecule, the figures for the concentration for an effect of 90% (IC90) in the experiment with Plasmodium falciparum [1], in the experiment with Plasmodium falciparum [2] and in the experiment on Plasmodium falciparum [3] were 34.8 nM, 21.1 nM and 70.6 nM, respectively.
For the molecule `CC(=O)O[C@@H]1CC[C@@]2(C)[C@@H](C1)C[C@@H](OC(C)=O)[C@@H]1[C@@H]2C[C@H](OC(C)=O)[C@]2(C)[C@@H]([C@H](C)CCCNc3ccnc4cc(Cl)ccc34)CC[C@@H]12`, the results for the pIC50 with Plasmodium falciparum [1], with Plasmodium falciparum [2] and in the experiment on Plasmodium falciparum [3] were 7.52, 7.80 and 6.86, respectively. Besides, the IC90 came out at 68.6 nM in the experiment with Plasmodium falciparum [1], 70.5 nM with Plasmodium falciparum [2] and 1180 nM in the experiment on Plasmodium falciparum [3].
Consider `Clc1ccc2c(NCCNCCC34CC5CC(CC(C5)C3)C4)ccnc2c1`, for which the values for the pIC50 in the experiment with Plasmodium falciparum [1], with Plasmodium falciparum [2] and in the experiment on Plasmodium falciparum [3] were 7.75, 8.07 and 7.81, respectively. Besides, the IC90 amounted to 24.4 nM with Plasmodium falciparum [1], 13.7 nM in the experiment on Plasmodium falciparum [2] and 31 nM in the experiment with Plasmodium falciparum [3].
On to `COC(=O)CC[C@@H](C)[C@H]1CC[C@H]2[C@@H]3[C@H](OC(C)=O)C[C@@H]4C[C@H](NCCNc5ccnc6cc(Cl)ccc56)CC[C@]4(C)[C@H]3C[C@H](OC(C)=O)[C@]12C`, for which the pIC50 was 7.89 with Plasmodium falciparum [1], 8.02 in the experiment with Plasmodium falciparum [2] and 8.24 with Plasmodium falciparum [3]. Also, the IC90 in the experiment with Plasmodium falciparum [1] was determined as 24.4 nM; in the experiment on Plasmodium falciparum [2] it was 12.3 nM; in the experiment with Plasmodium falciparum [3] it was 11.2 nM.
As to `O[C@@H](c1cc(C(F)(F)F)nc2c(C(F)(F)F)cccc12)[C@H]1CCCCN1` [MEFLOQUINE], the concentration for an effect of 90% (IC90) in the experiment with Plasmodium falciparum [1] was determined as 106 nM; in the experiment with Plasmodium falciparum [2] it was 28.1 nM; in the experiment with Plasmodium falciparum [3], 14.7 nM. Also, the pIC50 in the experiment on Plasmodium falciparum [2] was 7.95.
As for `Clc1ccc2c(NCCCN(CCC34CC5CC(CC(C5)C3)C4)CCC34CC5CC(CC(C5)C3)C4)ccnc2c1`, the pIC50 in the experiment with Plasmodium falciparum [1] is 6.96; with Plasmodium falciparum [2], 7.28; in the experiment on Plasmodium falciparum [3] it was 7.08. Besides, the results for the concentration for an effect of 90% (IC90) in the experiment on Plasmodium falciparum [1], in the experiment on Plasmodium falciparum [2] and in the experiment on Plasmodium falciparum [3] were 171 nM, 78.3 nM and 132 nM, respectively.
As to `O=C(NCCNc1ccnc2cc(Cl)ccc12)C12CC3CC(CC(C3)C1)C2`, the pIC50 in the experiment with Plasmodium falciparum [1] was 6.36; in the experiment on Plasmodium falciparum [2] it was 6.70; in the experiment on Plasmodium falciparum [3] it was 6.31. For the same molecule, the IC90 in the experiment with Plasmodium falciparum [1] was found to be 685 nM; in the experiment with Plasmodium falciparum [2], 465 nM; in the experiment on Plasmodium falciparum [3], 724 nM.
Turning to `O=C(CC12CC3CC(CC(C3)C1)C2)NCCCNc1ccnc2cc(Cl)ccc12`, the values for the pIC50 in the experiment on Plasmodium falciparum [1], with Plasmodium falciparum [2] and in the experiment on Plasmodium falciparum [3] were 6.70, 6.98 and 6.47, respectively. Moreover, the IC90 came to 464 nM with Plasmodium falciparum [1], 294 nM in the experiment on Plasmodium falciparum [2] and 853 nM in the experiment with Plasmodium falciparum [3].
Take `CC(=O)O[C@@H]1CC[C@@]2(C)[C@@H](C1)C[C@@H](OC(C)=O)[C@@H]1[C@@H]2C[C@H](OC(C)=O)[C@]2(C)[C@@H]([C@H](C)CCC(=O)Nc3ccnc4cc(Cl)ccc34)CC[C@@H]12`: the figures for the pIC50 in the experiment with Plasmodium falciparum [1], with Plasmodium falciparum [2] and in the experiment on Plasmodium falciparum [3] were 5.46, 5.52 and 5.14, respectively. Besides, the concentration for an effect of 90% (IC90) with Plasmodium falciparum [1] was 6060 nM; in the experiment on Plasmodium falciparum [2], 6920 nM.
For `Clc1ccc2c(NCCCCCNCCC34CC5CC(CC(C5)C3)C4)ccnc2c1`, the pIC50 is 7.17 in the experiment on Plasmodium falciparum [1], 7.66 with Plasmodium falciparum [2] and 6.80 with Plasmodium falciparum [3]. Moreover, the IC90 came out at 168 nM in the experiment on Plasmodium falciparum [1], 24.8 nM in the experiment on Plasmodium falciparum [2] and 311 nM in the experiment with Plasmodium falciparum [3].
For `Clc1ccc2c(NCCCCCNCC34CC5CC(CC(C5)C3)C4)ccnc2c1`, the results for the pIC50 in the experiment with Plasmodium falciparum [1], in the experiment on Plasmodium falciparum [2] and in the experiment with Plasmodium falciparum [3] were 7.12, 7.82 and 6.88, respectively. In addition, the IC90 turned out to be 161 nM in the experiment with Plasmodium falciparum [1], 18.9 nM in the experiment with Plasmodium falciparum [2] and 168 nM in the experiment on Plasmodium falciparum [3].
Turning to `CC(=O)O[C@@H]1CC[C@@]2(C)[C@@H](C1)C[C@@H](OC(C)=O)[C@@H]1[C@@H]2C[C@H](OC(C)=O)[C@]2(C)[C@@H]([C@H](C)CCCNCCNc3ccnc4cc(Cl)ccc34)CC[C@@H]12`, the results for the pIC50 in the experiment with Plasmodium falciparum [1], in the experiment with Plasmodium falciparum [2] and in the experiment on Plasmodium falciparum [3] were 7.56, 7.77 and 7.94, respectively. Further, the IC90 worked out at 77.9 nM with Plasmodium falciparum [1], 34.2 nM in the experiment with Plasmodium falciparum [2] and 32.5 nM in the experiment on Plasmodium falciparum [3].
Consider `Clc1ccc2c(NCCCNCCC34CC5CC(CC(C5)C3)C4)ccnc2c1`, for which the pIC50 in the experiment on Plasmodium falciparum [1] was 7.38; with Plasmodium falciparum [2], 7.94; with Plasmodium falciparum [3], 7.47. Besides, the IC90 with Plasmodium falciparum [1] came to 171 nM; in the experiment with Plasmodium falciparum [2], 23.3 nM; in the experiment on Plasmodium falciparum [3] it was 56.1 nM.
For the molecule `COC(=O)CC[C@@H](C)[C@H]1CC[C@H]2[C@@H]3[C@H](OC(C)=O)C[C@@H]4C[C@@H](NCCNc5ccnc6cc(Cl)ccc56)CC[C@]4(C)[C@H]3C[C@H](OC(C)=O)[C@]12C`, the pIC50 in the experiment with Plasmodium falciparum [1] is 7.96; with Plasmodium falciparum [2] it was 8.21; with Plasmodium falciparum [3] it was 8.47. The IC90 worked out at 25 nM in the experiment on Plasmodium falciparum [1], 10.4 nM with Plasmodium falciparum [2] and 6.74 nM in the experiment with Plasmodium falciparum [3].
With `CCN(CC)CCCC(C)Nc1ccnc2cc(Cl)ccc12` (stereo not given) [CHLOROQUINE], the IC90 came out at 16.4 nM with Plasmodium falciparum [2] and 530 nM in the experiment on Plasmodium falciparum [3].
Turning to `O=C(CC12CC3CC(CC(C3)C1)C2)NCCNc1ccnc2cc(Cl)ccc12`, the pIC50 with Plasmodium falciparum [1] was 6.62; in the experiment on Plasmodium falciparum [2], 7.11; in the experiment with Plasmodium falciparum [3], 6.60. In addition, the results for the IC90 in the experiment with Plasmodium falciparum [1], in the experiment on Plasmodium falciparum [2] and in the experiment with Plasmodium falciparum [3] were 383 nM, 157 nM and 397 nM, respectively.
As to `O=C(NCCCNc1ccnc2cc(Cl)ccc12)C12CC3CC(CC(C3)C1)C2`, the values for the pIC50 with Plasmodium falciparum [1], in the experiment with Plasmodium falciparum [2] and with Plasmodium falciparum [3] were 6.28, 6.67 and 6.06, respectively. Besides, the IC90 came to 787 nM with Plasmodium falciparum [1], 370 nM in the experiment with Plasmodium falciparum [2] and 1360 nM in the experiment on Plasmodium falciparum [3].
As to `CCCNC(=O)CC[C@@H](C)[C@H]1CC[C@H]2[C@@H]3[C@H](OC(C)=O)C[C@@H]4C[C@H](Nc5ccnc6cc(Cl)ccc56)CC[C@]4(C)[C@H]3C[C@H](OC(C)=O)[C@]12C`, the pIC50 with Plasmodium falciparum [1] is 7.00; in the experiment on Plasmodium falciparum [2], 7.17; in the experiment on Plasmodium falciparum [3], 6.68. Also, the IC90 in the experiment with Plasmodium falciparum [1] was 367 nM; in the experiment on Plasmodium falciparum [2] it was 98.2 nM; in the experiment with Plasmodium falciparum [3], 1850 nM.
`O=C(CC12CC3CC(CC(C3)C1)C2)NCCCCCNc1ccnc2cc(Cl)ccc12`: the pIC50 with Plasmodium falciparum [1] was 6.22; in the experiment on Plasmodium falciparum [2], 6.57; with Plasmodium falciparum [3], 6.29. The IC90 with Plasmodium falciparum [1] was 777 nM; in the experiment on Plasmodium falciparum [2] it was 347 nM; in the experiment with Plasmodium falciparum [3] it was 660 nM.
`Clc1ccc2c(NCCN(CCC34CC5CC(CC(C5)C3)C4)CCC34CC5CC(CC(C5)C3)C4)ccnc2c1`: the negative logarithm of the IC50 (pIC50) is 7.00 in the experiment on Plasmodium falciparum [1], 7.29 in the experiment on Plasmodium falciparum [2] and 7.11 with Plasmodium falciparum [3]. For the same molecule, the results for the IC90 in the experiment with Plasmodium falciparum [1], with Plasmodium falciparum [2] and with Plasmodium falciparum [3] were 225 nM, 70 nM and 113 nM, respectively.
With `COC(=O)CC[C@@H](C)[C@H]1CC[C@H]2[C@@H]3[C@H](OC(C)=O)C[C@@H]4C[C@H](OCCNc5ccnc6cc(Cl)ccc56)CC[C@]4(C)[C@H]3C[C@H](OC(C)=O)[C@]12C`, the results for the pIC50 in the experiment with Plasmodium falciparum [1], in the experiment with Plasmodium falciparum [2] and in the experiment with Plasmodium falciparum [3] were 7.30, 7.48 and 6.95, respectively. Further, the IC90 with Plasmodium falciparum [1] is 72.8 nM; in the experiment on Plasmodium falciparum [2], 99.3 nM; in the experiment on Plasmodium falciparum [3], 147 nM.
Turning to `Clc1ccc2c(NCCCNCC34CC5CC(CC(C5)C3)C4)ccnc2c1`, the pIC50 is 8.13 in the experiment on Plasmodium falciparum [1], 8.42 in the experiment on Plasmodium falciparum [2] and 7.92 in the experiment with Plasmodium falciparum [3]. For the same molecule, the IC90 in the experiment on Plasmodium falciparum [1] stood at 20.2 nM; in the experiment with Plasmodium falciparum [2], 6.41 nM; with Plasmodium falciparum [3], 20.1 nM.
Consider `COC(=O)CC[C@@H](C)[C@H]1CC[C@H]2[C@@H]3[C@H](OC(C)=O)C[C@@H]4C[C@H](OCCNCCNc5ccnc6cc(Cl)ccc56)CC[C@]4(C)[C@H]3C[C@H](OC(C)=O)[C@]12C`, for which the pIC50 in the experiment with Plasmodium falciparum [1] was 7.49; in the experiment on Plasmodium falciparum [2], 7.85; in the experiment on Plasmodium falciparum [3], 7.75. The results for the IC90 with Plasmodium falciparum [1], with Plasmodium falciparum [2] and in the experiment on Plasmodium falciparum [3] were 76 nM, 22.8 nM and 24.6 nM, respectively.
For the molecule `O=C(NCCCCCNc1ccnc2cc(Cl)ccc12)C12CC3CC(CC(C3)C1)C2`, the pIC50 was 6.12 in the experiment with Plasmodium falciparum [1], 6.29 in the experiment on Plasmodium falciparum [2] and 6.05 in the experiment with Plasmodium falciparum [3]. Besides, the IC90 came out at 984 nM with Plasmodium falciparum [1], 632 nM with Plasmodium falciparum [2] and 1410 nM in the experiment with Plasmodium falciparum [3].
`COC(=O)CC[C@@H](C)[C@H]1CC[C@H]2[C@@H]3[C@H](OC(C)=O)C[C@@H]4C[C@H](Nc5ccnc6cc(Cl)ccc56)CC[C@]4(C)[C@H]3C[C@H](OC(C)=O)[C@]12C`: the pIC50 in the experiment with Plasmodium falciparum [1] is 7.52; in the experiment with Plasmodium falciparum [2], 7.97; with Plasmodium falciparum [3] it was 6.97. Also, the IC90 stood at 68.6 nM in the experiment with Plasmodium falciparum [1], 20.7 nM with Plasmodium falciparum [2] and 563 nM in the experiment with Plasmodium falciparum [3].
For the molecule `C[C@@H]1CC[C@H]2[C@@H](C)C(=O)O[C@@H]3O[C@@]4(C)CC[C@@H]1[C@]32OO4` [ARTEMISININ], the pIC50 was 7.88 in the experiment with Plasmodium falciparum [1], 8.05 with Plasmodium falciparum [2] and 8.17 with Plasmodium falciparum [3]. The values for the IC90 in the experiment on Plasmodium falciparum [1], with Plasmodium falciparum [2] and with Plasmodium falciparum [3] were 17.4 nM, 12.8 nM and 11.5 nM, respectively.
Turning to `Clc1ccc2c(NCCNCC34CC5CC(CC(C5)C3)C4)ccnc2c1`, the pIC50 with Plasmodium falciparum [1] was 8.06; in the experiment on Plasmodium falciparum [2], 8.37; with Plasmodium falciparum [3], 8.08. In addition, the IC90 stood at 14.9 nM in the experiment with Plasmodium falciparum [1], 8.23 nM in the experiment with Plasmodium falciparum [2] and 15.2 nM in the experiment on Plasmodium falciparum [3].
